# Patent US20040234588A1 (priority 2000, published 2004)
# Where two headings read alike, the source gives them in different places.
# How the values were obtained:
# [1] = tested on: human glioma cells 767 SF; assay type: cell-based; details: for Concentration of B in the cells after 18 hrs incubation: initial B in the media 38 μg
# [2] = assay type: physicochemical; details: after 38 days at 4° C., HPLC
# [3] = tested on: rat 9L glioma cells; assay type: cell-based
# [4] = tested on: Human glioma cell line SF-767; assay type: cell-based; details: cells pretreated with chloroquine 30 minutes at 37° C., nanoemulsion/p-PLL/DNA complex, two quantities
# [5] = assay type: physicochemical
compound,measurement,setting,value
"cholesteryl 1,12-dicarba-closo-dodecaborane 1-carboxylate [BCH]",uptake in FBS relative to LPDS,[1]; FBS (lipoproteins present) vs LPDS (no lipoproteins),more than triple
same,Concentration of B in the cells after 18 hrs incubation,[1]; FBS media,57.6 ± 15.5 μg/g cells
same,Concentration of B in the cells after 18 hrs incubation,[1]; LPDS media,14.7 ± 3.5 μg/g cells
same,initial BCH recovered from the formulation,[2],about 85%
same,Concentration of B in the cells after 18 hrs incubation,[3]; High concentration: initial B in the media 16.5 μg/ml,61 ± 13 μg/g cells
same,Concentration of B in the cells after 18 hrs incubation,[3]; Low concentration: initial B in the media 8.25 μg/ml,50 ± 10 μg/g cells
CCN(CC)CCCC(C)Nc1ccnc2cc(Cl)ccc12 (stereo not drawn) [chloroquine],effect on transfection efficiency (β-galactosidase activity),[4],greatly increased the transfection efficiency
"C[C@@H]1[C@H](O)[C@@H](C)/C=C/C=C/C=C/C=C/C=C/C=C/C=C/[C@H](O[C@@H]2O[C@H](C)[C@@H](O)[C@H](N)[C@@H]2O)C[C@@H]2O[C@](O)(C[C@@H](O)C[C@@H](O)[C@H](O)CC[C@@H](O)C[C@@H](O)CC(=O)O[C@H]1C)C[C@H](O)[C@H]2C(=O)O [AmpB, Amphotericin B]",AmpB incorporated in the submicron emulsion system,[5]; 10 mg AmpB added to 100 mg lipids,2.33 mg
same,incorporated AmpB recovered with the first fraction,"[5]; first fraction, particle size 177 nm",72%
